In ChEMBL document CHEMBL3758113, “Stelliosphaerols A and B, Sesquiterpene-Polyol Conjugates from an Ecuadorian Fungal Endophyte” (2015):
Converted amounts (≈) assume the structure as drawn.

System: Staphylococcus aureus
Experiment: Antibacterial activity against Staphylococcus aureus measured every 10 mins for 8 hrs by liquid culture growth inhibition assay
Assay type: functional

CC1=CCC[C@@H](C)[C@]1(C)CC/C(=C/CO[C@@H]([C@H](O)[C@H](O)CO)[C@H](O)CO)CO
MIC: 250 µg/mL (≈ 621 µM)

CC1=CCC[C@@H](C)[C@]1(C)CC/C(C)=C/CO[C@@H]([C@H](O)[C@H](O)CO)[C@H](O)CO
MIC: 250 µg/mL (≈ 647 µM)
